The values that follow come from patent US10251865B2, “Method of activating regulatory T cells with alpha-2B adrenergic receptor agonists” (Allergan, Inc., priority 2010, dated 2019).

One assay has as its system EIU rats. The assay can be described thus: Endotoxin-induced uveitis (EIU) in rats. In kind it is in vivo, rat. On the procedure: Female Lewis rats (180-200 grams) were purchased from Charles River Laboratory. Rats were footpad-injected (hind left side) with either 100 μl of 1 mg/ml LPS (Sigma) solution (in sterile pyrogen-free saline) or 150 μl of sterile pyrogen-free saline. Animals were sacrificed at 24 hours following LPS injection. Aqueous humor was collected and analyzed to determine inflammatory cell counts, levels of cytokines and chemokine concentration as well as total protein concentrations. Blood leukocyte differentiation and histopathology were also determined if required.

The subject of another assay is EAAU rats. The assay can be described thus: Experimental autoimmune anterior uveitis (EAAU) in rats. In kind it is in vivo, rat. On the procedure:
Male Lewis rats (180-200 g) were immunized by a single left hind-footpad injection with 150, μg (in 100 μL) of purified MAA complex from bovine eye. MAA proteins were suspended in phosphate-buffered saline (PBS, pH7.2) and emulsified (1:1 v/v) in complete Freund's adjuvant (CFA, VWR Scientific) containing 1 μg/100 μl of Pertussis Toxin (PTx) emulsion mixture. Control animals were injected with PBS emulsified with CFA and PTx.
Assessment of intraocular inflammation was conducted starting day 7 after immunization, Animals were examined every other day between day 7 and 19 post-immunization for clinical signs and symptoms of uveitis using slit lamp microscopy. Aqueous humor was collected to evaluate the number of inflammatory cells and protein levels. Cell counts were done with 10 ul with a hemocytometer under the light microscope. Protein concentration was measured with a Protein assay solution from Bio-Rad, using BSA as the protein standard. Pro-inflammatory cytokine and chemokine levels were measured on Luminex (Biosource-Invitrogen, Carlsbad, Calif.). Blood, spleen, and eyes were harvested on days 11, 14, and 19 to determine blood leukocyte differentiation, splenic T cell activation status via Flow cytometry, as well as histopathology.

Another assay concerns tear TNF-alpha and IL17. The assay can be described thus: Dry eye desiccating stress in mice, adoptive transfer of CD4+ T cells, recipient tear cytokines. The conditions noted are these: donor mice treated 3 mg/kg/day for 10 days during desiccating stress; CD4+ T cells transferred to nude mice, FIG. 11. In kind it is in vivo. The source says: C57BL/6 (C57BL/6NTac) and B6.Cg/NTac-Foxn1nuNE9 were purchased from Taconic, Inc. (Germantown, N.Y.). Mice were used at 6-10 weeks of age. Animal studies approval was obtained from the Allergan Animal Care and Use Committee. All studies adhered to the Association for Research in Vision and Ophthalmology statement for the Use of Animals in Ophthalmic and Vision Research. As described in the literature dry eye was induced by treating mice with subcutaneous injections of scopolamine hydrobromide (0.5 mg/0.2 ml; Sigma-Aldrich, St. Louis, Mo.) three times a day alternating between the left and right flanks (Neiderkorn et al, 2006). […] Histological analysis was done by staining […] samples with antibody to CD4 and H&E staining to quantify goblet cells and T cells in the conjunctiva. […]
The levels of cytokines were measured with a sensitive, fluorescent multiplex immunobead assay (Luminex; Biosource-Invitrogen, Carlsbad, Calif.). […] Cytokine levels in samples were analyzed by using the corresponding Millipore cytokine Beadmate pairs. […] Beads were washed, resuspended in 125 μl of Beadlyte buffer, and analyzed by Luminex 100 instrument (Luminex Corporation, Austin, Tex.). The mean fluorescence intensities obtained from 50 beads per cytokine minimum were analyzed using Upstate Beadview software. […]

As for `CCC1=CC(Cc2c[nH]cn2)CCC1` (centres unmarked) [Compound B], in the assay with EIU rats (1 mg/kg/day by osmotic minipump, vs untreated or vehicle-treated (saline) controls, FIG. 9), the “protein exudation in the aqueous humor” value is “significantly inhibited”. Besides, in the assay with EIU rats (FIG. 10), the “decrease on blood lymphocyte populations as a result of LPS stimulation” value was “significantly normalized” and the “increase in blood neutrophils as a result of LPS stimulation” value was “significantly normalized”. In addition, in the assay on EAAU rats (1 mg/kg/day from days 1-18 or days 7-18 following EAAU induction (3 days oral TID then osmotic minipump)), the anterior inflammation result was “effective in partially abrogating”. Further, in the assay with EAAU rats (EAAU rats), the “CD4+ T cell population in the spleen” value was “normalized”, the “lymphocyte populations in the blood” value is given as “normalized” and the “neutrophil cell counts in the blood” value was “decreased”. For the same molecule, in the assay with EAAU rats (EAAU rats, FIG. 8), the “clinical scores of anterior uveitis” value is “decreased” and the “inflammatory cell numbers in the aqueous humor” value was “decreased”. For the same molecule, in the assay on tear TNF-alpha and IL17, the “recipient tear level of IL-17” value is “significantly reduced” and the “recipient tear level of TNFα” value is given as “significantly reduced”.
